Data: EP4700023A1, “GLP-1R RECEPTOR AGONIST COMPOUND SALT AND CRYSTAL FORM THEREOF, PREPARATION METHOD THEREFOR AND USE THEREOF” (Chengdu Vincentage Pharma Co., Ltd., priority 2023, dated 2024)

How the values were obtained:
[1] = Hygroscopicity test method (DVS); format: physicochemical; conditions: 80% RH, 25°C, DVS
Protocol: Hygroscopicity test method (DVS): The hygroscopicity of the sample was measured using SMS Intrinsic Plus. The sample was weighed into a sample pan, equilibrated at 25°C until dm/dt was less than 0.002%, and then measured in time mode. The humidity was adjusted from 60%-90%-0%-90%-0% RH, with increments of 10% RH per step, and each humidity level was maintained for 1 hour.

[2] = Pharmacokinetic evaluation in rats; format: in vivo; conditions: plasma; Rat PK, oral (PO), 10 mg/kg
Protocol: Rats were used as test animals, and the plasma drug concentrations at different time points after gavage administration of the test sample were measured. The pharmacokinetic behavior of the compound of the present disclosure in rats was studied to evaluate its metabolic characteristics. For each experimental group, 3 rats with similar body weights were selected and orally administered a single dose of 10 mg/kg. […] Pharmacokinetic parameter calculations were performed using metabolic kinetic data analysis software WinNonlin 7.0 by non-compartmental analysis (NCA) based on plasma concentration data.
A test sample with a final preparation concentration (based on the content of the compound of formula I) of 1.0 mg/mL was prepared for oral administration, using a 0.5% CMC Na aqueous solution as the preparation solvent.
Administration: After overnight fasting (12 hours), rats were administered by gavage at a dose of 10 mg/kg.
The blood samples were placed in heparinized sample tubes, and centrifuged at 4°C and 3500 rpm for 10 minutes to separate plasma, which was then stored at -20°C. Food was provided 2 hours after administration.
Determination of the content of the compound to be tested in rat plasma after gavage administration: After thawing plasma samples at room temperature, 300 µL of internal standard (terfenadine 200 ng/mL, acetonitrile) was added to each sample. The mixtures were vortexed for 1 min and then centrifuged at 4°C and 15400 rpm for 10 min. The supernatant was diluted 20-fold with 80% acetonitrile-water and then injected for LC/MS/MS analysis.

Solubility test = format: physicochemical; conditions: thermodynamic from solid, water, 37°C, HPLC
Protocol: Approximately 10 mg of the crystal compound was weighed and added to 3 mL of water, shaken, and maintained at 37°C.

[3] = Purity test after storage in an oven at set temperature (stability); format: physicochemical; conditions: 80 °C for 30 days (footnote c)
[4] = as above; format: physicochemical
Protocol: Purity test: The sample to be tested was dissolved in a methanol solution, and the sample purity was measured by HPLC.

[5] = Grindability test (mortar, XRPD detection); format: physicochemical
Protocol: Grindability test: An appropriate amount of the crystal compound to be tested was placed in a mortar and ground for 2 min and 5 min, followed by XRPD detection.

[6] = Compressibility test (tableting, XRPD detection); format: physicochemical; conditions: compressed into tablets
[7] = Comparison of crystal forms of the salt (behaviour during preparation); conditions: during the preparation process

Row | Structure (SMILES) | Hygroscopicity (80% RH) [1] | Hygroscopicity (80% RH), description in words [1] | AUC(0-inf) [2] | AUC(0-t) [2] | Cmax [2] | Tmax [2] | half-life [2] | solubility at 24 h (Solubility test) | Solid form after 80°C (result after 30 days) [3] | Purity, 2 to 8°C (6 months) ([4]; 2 to 8°C, 6 months, HPLC) | Purity, Onset ([4]; Onset (before storage), HPLC) | Thermal stability ([4]; conclusion from Table 13, degrades under heating or room temperature) | Purity, 60°C (7 day) ([4]; oven, 60°C, 7 day, HPLC) | Purity, 80°C (result after 30 days) ([4]; oven, 80 °C for 30 days (footnote c), HPLC) | Grindability (mortar 5 min), purity change [5] | Grindability (mortar 5 min), solid form ([5]; XRPD) | Compressibility (20 Mp) [6] | Crystal form stability during preparation [7]
1 | O=C(O)c1ccc2nc(CN3CCC(c4ccccc4OCc4ccc(Cl)cc4F)CC3)n(C[C@@H]3CCO3)c2c1 [Compound of formula I] | 0.25% | 10 to 90% RH linear reversible | 401 ng·h/mL | 396 ng·h/mL | 154 ng/mL | 40 min | 65.4 min | < 1 µg/mL | amorphous | 82.49% | 99.15% | poor thermal stability | 99.15% | 70.18% | 6.5% | Amorphous | Significant reduction in crystallinity, amorphization | –
2 | C1COCCO1.NC(CO)(CO)CO.O=C(O)c1ccc2nc(CN3CCC(c4ccccc4OCc4ccc(Cl)cc4F)CC3)n(CC3CCO3)c2c1 [Crystal form B of the 1,4-dioxane solvate of the 2-amino-2-(hydroxymethyl)-1,3-propanediol salt of (S)-2-((4-(2-((4-chloro-2-fluorobenzyl)oxy)phenyl)piperidin-1-yl)methyl)-1-(oxetan-2-aminomethyl)-1H-benzo[d]imidazole-6-carboxylate] | – | – | – | – | – | – | – | – | – | – | – | – | – | – | – | – | – | unstable, prone to crystal form transformation during preparation
